Measured values reported in patent publication US20080031957A1, “Pulmonary delivery of 1alpha,25-dihydroxyvitamin D3 and co-administration of parathyroid hormone or calcitonin” (priority 2006, published 2008).

Tests used:
[1] = Tissue distribution of 1α,25-dihydroxyvitamin D3 after intratracheal (pulmonary) delivery; type: in vivo, Sprague Dawley rats
Source text: Sprague Dawley and Brown Norway male rats aged 6-7 weeks were obtained from Harlan Sprague-Dawley (Madison, Wis.) and housed in shoebox cages. Animals were provided a purified rodent diet prepared in-house containing 0.47% calcium and 0.3% phosphorus, and water ad libitum. The diet was supplemented with 1.6 IU vitamin D3/g diet. […] Formulation A was an aqueous solution containing 30% propylene glycol and 5% ethanol at pH 7.0. Formulation B was also an aqueous solution further containing 0.4% TWEEN polysorbate 20 [1 mL of solution contains: 4 mg Tween Polysorbate 20, 1.5 mg sodium chloride, 10 mg sodium ascorbate, 7.6 mg sodium phosphate (dibasic), 1.8 mg sodium phosphate (monodibasic) and 1.1 mg disodium […]], pH 7.0. Intratracheal delivery of 1α,25-dihydroxyvitamin D3. 5 μCi of 1α,25-dihydroxyvitamin D3 was delivered intratracheally to anesthetized (isoflurane) Sprague Dawley rats by using the MicroSprayerTM Model 1C following the manufacturer's protocol (PennCentury, Philadelphia, Pa). The device included a stainless steel tube measuring 0.64 mm in diameter attached to a high-pressure syringe (Model FMJ-250, PennCentury). An atomizer at the very tip of the tube generated the aerosol plume. The MicroSprayerTM was inserted deep into the trachea allowing delivery of aerosolized compounds into the lungs. 1α,25-dihydroxyvitamin D3 was administered in either 100 μL (Formulation A and Formulation B) or 200 μL (Formulation A) dose volumes. As a quench control, a group of animals were dosed with either Formulation A or Formulation B. Tissue analysis. Using a duration of 4 hours and a duration of 10 minutes after administering the dose, the animals were anesthetized with isoflurane and blood was collected from the heart. The trachea, lungs and stomach were removed, dehydrated in alcohol and pulverized. Samples weighing 20-100 mg were placed in 1 mL Solvable (Packard BioScience B. V., The Netherlands) and incubated at 60° C. overnight. Next, 10 mL of Optima Gold (Perkin Elmer, Boston, Mass.) was added to the samples, and radioactivity was measured using a liquid scintillation analyzer (TRI-CARB 2100 TR, Packard). To determine the presence of 1α,25-dihydroxyvitamin D3 in the blood, 200-300 μL of serum in 10 mL Optima Gold was used for scintillation counting.

serum calcium levels = test: Effect of aerosolized 1α,25-dihydroxyvitamin D3 on serum calcium levels; type: in vivo, Brown Norway rats; conditions: Formulation A, intratracheal 200 μL doses on Day 0 and Day 2, blood 24 h after last dose
Source text: Sprague Dawley and Brown Norway male rats aged 6-7 weeks were obtained from Harlan Sprague-Dawley (Madison, Wis.) and housed in shoebox cages. Animals were provided a purified rodent diet prepared in-house containing 0.47% calcium and 0.3% phosphorus, and water ad libitum. The diet was supplemented with 1.6 IU vitamin D3/g diet. […] Formulation A was an aqueous solution containing 30% propylene glycol and 5% ethanol at pH 7.0. Formulation B was also an aqueous solution further containing 0.4% TWEEN polysorbate 20 [1 mL of solution contains: 4 mg Tween Polysorbate 20, 1.5 mg sodium chloride, 10 mg sodium ascorbate, 7.6 mg sodium phosphate (dibasic), 1.8 mg sodium phosphate (monodibasic) and 1.1 mg disodium […]], pH 7.0. Effectiveness of Aerosol Delivery of Vitamin D to Pulmonary Tree. 1α,25-dihydroxyvitamin D3 effect on serum calcium levels in Brown Norway rats was determined. Delivery of 1α,25-dihydroxyvitamin D3 (i.e., in vivo activity) was measured to determine the effect of aerosolized 1α,25-dihydroxyvitamin D3 treatment on serum calcium levels. Formulation A containing 1α,25-dihydroxyvitamin D3 was intra-tracheally delivered in 200 μL doses on Day 0 (Day 0 was the first day of treatment) and Day 2. […] Calcium levels were determined by atomic absorption spectroscopy of the serum diluted 0.1% lanthum chloride using a Perkin Elmer Model 3110.

[2] = Formulation A, 100 μL dose, after 10 minutes
[3] = Formulation B, 100 μL dose, after 10 minutes

C=C1/C(=C\C=C2/CCC[C@]3(C)[C@@H]([C@H](C)CCCC(C)(C)O)CC[C@@H]23)C[C@@H](O)C[C@@H]1O [1α,25-dihydroxyvitamin D3]
detected 1α,25-dihydroxyvitamin D3 found in the serum [1, 2]: 53% | detected 1α,25-dihydroxyvitamin D3 found in the stomach [1, 2]: ~1% | detected 1α,25-dihydroxyvitamin D3 found in the trachea and lungs [1, 2]: 46% | detected 1α,25-dihydroxyvitamin D3 found in the serum ([1]; Formulation A, after 4 hours): 60% | detected 1α,25-dihydroxyvitamin D3 found in the stomach ([1]; Formulation A, after 4 hours): 36% | detected 1α,25-dihydroxyvitamin D3 found in the trachea and lungs ([1]; Formulation A, after 4 hours): Less than 5% | detected 1α,25-dihydroxyvitamin D3 found in the serum [1, 3]: 51% | detected 1α,25-dihydroxyvitamin D3 found in the stomach [1, 3]: less than 4% | detected 1α,25-dihydroxyvitamin D3 found in the trachea and lungs [1, 3]: 33% | 1α,25-dihydroxyvitamin D3 detected in serum (% of total) ([1]; Formulation B, after 4 hours): 56% | 1α,25-dihydroxyvitamin D3 detected in stomach (% of total) ([1]; Formulation B, after 4 hours): 35% | increase of serum calcium levels (serum calcium levels; 1 μg/kgBW): 2.8 mg/dL | increase of serum calcium levels (serum calcium levels; 10 μg/kgBW): 4 mg/dL
